Laboratory results taken from patent publication US20230234936A1, “COMPOUND FOR TARGETING AND DEGRADING PROTEIN, AND PREPARATION METHOD THEREFOR AND USE THEREOF” (SHANGHAI LEADINGTAC PHARMACEUTICAL CO., LTD., priority 2020, published 2023).

Key:
Type in all cases: cell-based
IKZF1 in L363 cells = target: T1, IKZF1 in L363 cells (Homo sapiens, UniProt Q13422+Q96SW2); experiment: Degradation of IKZF1 in L363 cells (Western blot); conditions: 1000 nM, 16 hours
T1 construct: endogenous in cells; host or cells: L363
Procedure: (§1) The 24-well cell culture plate was inoculated with 0.95 mL L363 cells (Nanjing Co-bioer) per well with a cell density of 6×10^5 cells/well. The cell plate was placed in a 5% carbon dioxide incubator and cultured at 37° C. for 8 hours, then 50 μL of compound solution was added. The final concentration of the compound was 1000 nM. After continuing to culture for 16 hours, the cells were collected into a 1.5 mL centrifuge tube and centrifuged at 3000 rpm and 4° C. for 5 minutes. Cell precipitation was cleaned twice with 1×DPBS, resuspended cells were lysed with 100 μL lysate (cell lysate was Western and IP cell lysate (Beyotime), supplemented with 1 mM mixture of phenylmethylsulfonyl fluoride and protease inhibitor (Beyotime)), left on ice for 30 minutes, then centrifuged at 14000 g at 4° C. for 10 minutes, and the supernatant was taken to detect IKZF1 and IKZF3 protein level by Western blot.
(§2) The total protein concentration in the supernatant of cell lysis was determined by BCA protein quantitative kit (Tiangen). According to the concentration of total protein detected by BCA, the supernatant was adjusted to 0.2 μg/μL with PBS and 5× SDS-PAGE protein loading buffer (Beyotime), bathed in water at 100° C. for 10 minutes, then placed in ice bath for 5 minutes, centrifuged at 14000 g and 4° C. for 5 minutes, and then collected as WB loading sample. Prefabricated glue (KeyGEN) was used for protein electrophoresis with a loading amount of 10 μL (total protein 2 μg). After Tris-MOPS-SDS electrophoresis solution (Adamas), 120V constant pressure electrophoresis was performed. After electrophoresis, the protein on the adhesive strip was transferred to PVDF membrane with a constant current of […] for 50 minutes. After the membrane was transferred, the membrane was incubated in 5% bovine serum albumin solution for 2 hours at room temperature. After blocking, PVDF membranes were incubated with IKZF1 primary antibody (CST) and IKZF3 primary antibody (Abcam) overnight at 4°, the membranes were washed with TBST buffer (2.4 g Tris, 8.8 g NaCl, 1.5 mL Tween 20, pH adjusted to 7.4, constant volume to IL) for 30 minutes, incubated with secondary antibody (Abcam) for 2 hours at room temperature, finally incubated with Clarity Western ECL Substrate(BIO-RAD) for 5 minutes for luminescence development, chemiluminescence imaging system (Clinx, chemiScope 6200 Touch) for development and protein mapping photography. The protein map was analyzed by Clinx chemiluminescence analysis software for grayscale values. Using the formula: grayscale correction value=(target protein grayscale value/corresponding internal reference grayscale value)×10^3, the grayscale correction value of each sample was calculated. The degradation rate was calculated by comparing with the grayscale correction value of the control group.

IKZF3 in L363 cells = target: T2, IKZF3 in L363 cells (Homo sapiens, UniProt Q96SW2+Q9UKT9); experiment: Degradation of IKZF3 in L363 cells (Western blot); conditions: 1000 nM, 16 hours
T2 construct: endogenous in cells; host or cells: L363
Procedure: as §1, §2

[1] = system: Interleukin-6 (IL-6) in LPS-induced human PBMC; experiment: Cytokine secretion of LPS-induced human PBMC, IL-6 AlphaLISA detection; conditions: inhibition of IL-6, compound 1 hour or 20 hours, then LPS 100 ng/mL 5 hours
Procedure: Frozen human PBMC (Milestone, PB010C) was resuspended to RPMI 1640 medium (Gibco, A1049101) after resuscitation, supplemented with 10% fetal bovine serum (Gibco, 10099141), 100 U/mL penicillin and 100 μg/mL streptomycin (Gibco, 15140122). On the same day, 150 μL of PBMC was spread in each well of a 96-well transparent cell plate (Labserv, 310109008), so that the cell density was 2×10^5 cells/well. Then 50 μL diluted compound solution was added to the corresponding cell-covered wells to make the final concentration of the compound in the range of 0.026-10000 nM. The final concentration of DMSO was 0.25%. After the drug-treated cell plate was cultured at 37° C. for 1 hour or 20 hours in a 5% CO2 incubator, 10 μL LPS (0111:B4) (Sigma, L4391) was added with a final concentration of 100 ng/mL. The cell plate was again placed in a 5% CO2 incubator at 37° C. for 5 hours, centrifuged at 2000 rpm for 10 minutes, and 100 μL cell supernatant was taken from each well and transferred to a new 96-well transparent cell plate for cytokine concentration test, which was frozen at −80° C. to be tested.
The concentration of IL-6 in the supernatant of LPS-induced human PBMC cells was determined using interleukin-6 (IL-6) AlphaLISA detection kit (PerkinElmer, AL223 C).
According to the product instructions, IL-6 standard solutions with different concentrations were prepared in the concentration range of […]. 2 μL of IL-6 standard solution at various concentrations and the cell supernatant sample to be tested were taken, respectively added to white 384 well plates (PerkinElmer, 6007299), then a mixed solution of 8 μL of 5× anti-IL-6 receptor beads (final concentration: 10 μg/mL) and biotin-labeled anti-IL-6 antibody (final concentration 1 nM) was added to each well, and incubated at 23° C. for 60 minutes. Finally, 10 μL of 2× streptavidin-labeled donor beads (final concentration: 40 μg/mL) were added to each well and incubated at 23° C. for 30 minutes in the absent of light. After the incubation, the AlphaLISA signal value was determined in the AlphaScreen standard setting mode on the microplate reader EnVision(PerkinElmer, 2105). The standard curve was drawn by the AlphaLISA signal value of each concentration IL-6 standard solution, and then based on the corresponding concentration on the standard curve for the AlphaLISA signal value of the sample to be tested, the IL-6 concentration of each cell lysis supernatant was determined. Compared with the IL-6 concentration of the control group, the inhibition rate of the compound at each concentration was calculated, and then IC50 value of the compound was calculated by fitting the nonlinear curve with the logarithmic concentration-inhibition rate by GraphPad Prism 7.

T2 sequence (Q9UKT9 whole entry): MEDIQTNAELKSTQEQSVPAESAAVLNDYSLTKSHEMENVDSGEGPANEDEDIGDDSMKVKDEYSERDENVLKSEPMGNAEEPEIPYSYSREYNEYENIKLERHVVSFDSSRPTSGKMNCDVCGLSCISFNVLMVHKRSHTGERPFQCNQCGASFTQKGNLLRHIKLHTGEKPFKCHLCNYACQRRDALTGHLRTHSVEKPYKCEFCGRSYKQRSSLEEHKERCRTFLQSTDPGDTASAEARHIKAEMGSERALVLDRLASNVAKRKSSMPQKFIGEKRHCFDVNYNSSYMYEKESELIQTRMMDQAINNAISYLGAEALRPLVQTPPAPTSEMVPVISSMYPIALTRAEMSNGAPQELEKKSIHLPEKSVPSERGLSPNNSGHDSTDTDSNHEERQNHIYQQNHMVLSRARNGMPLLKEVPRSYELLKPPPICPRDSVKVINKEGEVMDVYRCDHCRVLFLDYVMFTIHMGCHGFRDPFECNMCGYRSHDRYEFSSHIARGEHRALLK
T2 sequence (Q96SW2 whole entry): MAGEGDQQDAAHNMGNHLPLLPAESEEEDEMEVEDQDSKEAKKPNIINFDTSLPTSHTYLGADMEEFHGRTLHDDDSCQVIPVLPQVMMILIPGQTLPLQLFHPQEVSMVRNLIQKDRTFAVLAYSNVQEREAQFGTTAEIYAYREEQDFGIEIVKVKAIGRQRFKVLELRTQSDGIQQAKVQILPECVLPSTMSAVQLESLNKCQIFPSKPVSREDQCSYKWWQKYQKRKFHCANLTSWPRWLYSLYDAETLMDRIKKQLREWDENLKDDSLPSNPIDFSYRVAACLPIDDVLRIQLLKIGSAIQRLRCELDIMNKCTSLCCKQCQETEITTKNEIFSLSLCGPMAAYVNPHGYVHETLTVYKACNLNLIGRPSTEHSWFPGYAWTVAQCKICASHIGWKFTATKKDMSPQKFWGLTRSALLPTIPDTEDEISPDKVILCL
T2 sequence (Q16531 whole entry partner): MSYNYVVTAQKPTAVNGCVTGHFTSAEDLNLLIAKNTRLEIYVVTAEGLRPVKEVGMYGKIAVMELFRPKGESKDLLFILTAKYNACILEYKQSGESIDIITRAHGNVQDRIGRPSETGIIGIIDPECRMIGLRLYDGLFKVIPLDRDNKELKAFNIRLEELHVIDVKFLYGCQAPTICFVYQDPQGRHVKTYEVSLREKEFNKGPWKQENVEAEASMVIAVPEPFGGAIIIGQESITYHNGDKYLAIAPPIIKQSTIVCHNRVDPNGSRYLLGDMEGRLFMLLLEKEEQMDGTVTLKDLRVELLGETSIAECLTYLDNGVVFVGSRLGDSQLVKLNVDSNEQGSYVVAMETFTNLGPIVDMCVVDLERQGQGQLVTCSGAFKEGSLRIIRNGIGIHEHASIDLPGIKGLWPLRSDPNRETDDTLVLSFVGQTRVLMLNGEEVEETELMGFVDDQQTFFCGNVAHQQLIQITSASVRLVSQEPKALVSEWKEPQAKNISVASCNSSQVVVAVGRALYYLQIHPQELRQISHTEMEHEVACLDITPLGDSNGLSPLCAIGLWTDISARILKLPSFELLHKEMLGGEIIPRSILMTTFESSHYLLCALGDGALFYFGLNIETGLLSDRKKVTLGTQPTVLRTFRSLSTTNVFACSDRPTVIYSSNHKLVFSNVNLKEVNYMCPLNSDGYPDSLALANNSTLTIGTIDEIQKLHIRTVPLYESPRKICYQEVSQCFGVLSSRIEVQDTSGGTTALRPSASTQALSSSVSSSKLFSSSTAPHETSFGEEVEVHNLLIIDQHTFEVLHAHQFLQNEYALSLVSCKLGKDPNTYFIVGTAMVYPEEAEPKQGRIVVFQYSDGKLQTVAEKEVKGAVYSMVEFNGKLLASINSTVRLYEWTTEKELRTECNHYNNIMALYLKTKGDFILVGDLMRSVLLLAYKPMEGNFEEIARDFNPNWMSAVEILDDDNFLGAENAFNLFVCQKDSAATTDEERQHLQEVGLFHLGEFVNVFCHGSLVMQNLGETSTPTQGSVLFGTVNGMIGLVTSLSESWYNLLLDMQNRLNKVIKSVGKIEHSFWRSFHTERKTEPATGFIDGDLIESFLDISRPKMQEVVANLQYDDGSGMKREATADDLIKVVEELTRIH
T1 sequence (Q13422 whole entry): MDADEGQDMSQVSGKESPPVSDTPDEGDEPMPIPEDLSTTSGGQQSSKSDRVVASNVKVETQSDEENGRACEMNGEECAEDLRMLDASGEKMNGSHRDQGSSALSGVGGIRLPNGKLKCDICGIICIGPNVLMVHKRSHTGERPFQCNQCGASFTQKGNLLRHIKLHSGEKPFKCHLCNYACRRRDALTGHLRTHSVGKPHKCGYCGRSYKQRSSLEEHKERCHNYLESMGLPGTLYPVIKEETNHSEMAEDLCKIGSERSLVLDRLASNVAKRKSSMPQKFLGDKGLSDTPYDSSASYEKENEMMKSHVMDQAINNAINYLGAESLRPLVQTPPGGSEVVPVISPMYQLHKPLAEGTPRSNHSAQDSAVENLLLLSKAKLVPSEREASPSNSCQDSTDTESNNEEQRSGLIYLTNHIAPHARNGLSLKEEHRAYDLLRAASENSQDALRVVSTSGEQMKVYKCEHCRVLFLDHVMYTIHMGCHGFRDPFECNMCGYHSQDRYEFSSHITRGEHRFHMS
T1 sequence (Q96SW2 whole entry): as the sequence (Q96SW2 whole entry) above
T1 sequence (Q16531 whole entry partner): as the sequence (Q16531 whole entry partner) above

| IKZF1 degradation rate (IKZF1 in L363 cells) [%] | IKZF3 degradation rate (IKZF3 in L363 cells) [%] | Compound | IC50 [1] [nM] |
| --- | --- | --- | --- |
| 47.5 ± 9.7 | 71.2 ± 5.7 | COc1cc2nn(C3CCN(CC4CCN(CCOc5ccc6c(c5)C(=O)N(C5CCC(=O)NC5=O)C6=O)CC4)CC3)cc2cc1NC(=O)c1cccc(C(F)(F)F)n1 (stereo not drawn) [Control group 2, N-(2-(1-((1-(2-((2-(2,6-dioxopiperidin-3-yl)-1,3-dioxoisoindol-5-yl)oxy)ethyl)piperidin-4-yl)methyl)piperidin-4-yl)-6-methoxy-2H-indazol-5-yl)-6-(trifluoromethyl) pyridinecarboxamide, reference compound] | 2050 |
| 97.2 ± 2.6 | 92.8 ± 5.0 | CN(CC1CCN(c2cccc3c2C(=O)N(C2CCC(=O)NC2=O)C3=O)CC1)C[C@H]1CC[C@H](n2cc3cc(NC(=O)c4cccc(C(F)(F)F)n4)c(C(C)(C)O)cc3n2)CC1 (stereo partly drawn) [Control group 3, N-(2-((1r,4r)-4-((((1-(2-(2,6-dioxopiperidin-3-yl)-1,3-dioxoisoindolin-4-yl)piperidin-4-yl)methyl) (methyl)amino)methyl)cyclohexyl)-6-(2-hydroxyprop-2-yl)-2H-indazol-5-yl)-6-(trifluoromethyl) pyridinecarboxamide, reference compound] | 47.5 |
| 8.4 ± 13.9 | 17.8 ± 3.6 | CC(C)(O)c1cc2nn(C3CCN(CC4CCC5(CC4)CCN(C(=O)c4ccc(Cl)c(N6CCC(=O)NC6=O)c4)CC5)CC3)cc2cc1NC(=O)c1cccc(C(F)(F)F)n1 [Example 31, N-(2-(1-((3-(4-chloro-3-(2,4-dioxotetrahydro-pyrimidin-1 (2H)-yl)benzoyl)-3-azaspiro [5.5]undec-9-yl)methyl)piperdin-4-yl)-6-(2-hydroxyprop-2-yl)-2H-indazol-5-yl)-6-(trifluoro-methyl) pyridinecarbox-amide] | 1.8 |
